Data published in PubChem BioAssay (NCI).
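Interpolation was linear, between the two tested concentrations surrounding the appropriate level; five concentrations were tested over 48 hours in 96-well plates. TGI is the concentration that stops growth completely.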

Experiments:
Experiment in all cases: inhibition of tumour cell growth, NCI panel, 48 h
MOLT-4 leukemia = system: MOLT-4 leukemia
HT29 colon = system: HT29 colon
NCI-H23 lung = system: NCI-H23 lung
HCT-116 colon = system: HCT-116 colon
RXF 393 renal = system: RXF 393 renal
RXF-631 renal = system: RXF-631 renal
M14 melanoma = system: M14 melanoma
NCI-H522 lung = system: NCI-H522 lung
U251 CNS = system: U251 CNS
KM12 colon = system: KM12 colon
OVCAR-8 ovarian = system: OVCAR-8 ovarian
MDA-MB-231 breast = system: MDA-MB-231 breast
SK-MEL-28 melanoma = system: SK-MEL-28 melanoma
SK-MEL-2 melanoma = system: SK-MEL-2 melanoma
COLO 205 colon = system: COLO 205 colon
NCI-H460 lung = system: NCI-H460 lung
HS 578T breast = system: HS 578T breast
MDA-N = system: MDA-N
SF-268 CNS = system: SF-268 CNS
A549 NSCLC = system: A549 NSCLC
LXFL 529 NSCLC = system: LXFL 529 NSCLC
NCI-H226 lung = system: NCI-H226 lung
BT-549 breast = system: BT-549 breast
DMS 273 small cell lung = system: DMS 273 small cell lung
A498 renal = system: A498 renal
HOP-62 NSCLC = system: HOP-62 NSCLC
SK-OV-3 ovarian = system: SK-OV-3 ovarian
RPMI-8226 leukemia = system: RPMI-8226 leukemia
HCT-15 colon = system: HCT-15 colon
SN12C renal = system: SN12C renal
SNB-78 CNS = system: SNB-78 CNS
OVCAR-5 ovarian = system: OVCAR-5 ovarian
UACC-257 melanoma = system: UACC-257 melanoma
IGROV1 ovarian = system: IGROV1 ovarian
SR leukemia = system: SR leukemia
OVCAR-4 ovarian = system: OVCAR-4 ovarian
LOX IMVI melanoma = system: LOX IMVI melanoma
TK-10 renal = system: TK-10 renal
SW-620 colon = system: SW-620 colon
UACC-62 melanoma = system: UACC-62 melanoma
XF 498 CNS = system: XF 498 CNS
HCC-2998 colon = system: HCC-2998 colon
SK-MEL-5 melanoma = system: SK-MEL-5 melanoma
OVCAR-3 ovarian = system: OVCAR-3 ovarian
ACHN renal = system: ACHN renal
HL-60(TB) leukemia = system: HL-60(TB) leukemia
K-562 leukemia = system: K-562 leukemia
KM20L2 colon = system: KM20L2 colon
SF-539 CNS = system: SF-539 CNS
DU-145 prostate = system: DU-145 prostate
MCF7 breast = system: MCF7 breast
SNB-19 CNS = system: SNB-19 CNS
HOP-18 NSCLC = system: HOP-18 NSCLC
UO-31 renal = system: UO-31 renal
MALME-3M melanoma = system: MALME-3M melanoma
DLD-1 colon = system: DLD-1 colon
T-47D breast = system: T-47D breast
CAKI-1 renal = system: CAKI-1 renal
M19-MEL melanoma = system: M19-MEL melanoma
EKVX NSCLC = system: EKVX NSCLC
786-0 renal = system: 786-0 renal
PC-3 prostate = system: PC-3 prostate
SNB-75 CNS = system: SNB-75 CNS
HOP-92 NSCLC = system: HOP-92 NSCLC
CCRF-CEM leukemia = system: CCRF-CEM leukemia
SF-295 CNS = system: SF-295 CNS
DMS 114 small cell lung = system: DMS 114 small cell lung

Cc1c2ccncc2cc2c1sc1ccncc12
TGI (MOLT-4 leukemia): 2450 nM
TGI (HT29 colon): 14.5 µM
TGI (NCI-H23 lung): 10.7 µM
TGI (HCT-116 colon): 13.1 µM
TGI (RXF 393 renal): 12.4 µM
TGI (RXF-631 renal): > 40.9 µM
TGI (M14 melanoma): 13.5 µM
TGI (NCI-H522 lung): 9.09 µM
TGI (U251 CNS): 14.7 µM
TGI (KM12 colon): 17.1 µM
TGI (OVCAR-8 ovarian): 23.7 µM
TGI (MDA-MB-231 breast): 21.9 µM
TGI (SK-MEL-28 melanoma): 14.1 µM
TGI (SK-MEL-2 melanoma): 17.8 µM
TGI (COLO 205 colon): 12.1 µM
TGI (NCI-H460 lung): 4.77 µM
TGI (HS 578T breast): 20.4 µM
TGI (MDA-N): 14.3 µM
TGI (SF-268 CNS): 14.4 µM
TGI (A549 NSCLC): 5.3 µM
TGI (LXFL 529 NSCLC): 28.1 µM
TGI (NCI-H226 lung): 5.18 µM
TGI (BT-549 breast): 17.6 µM
TGI (DMS 273 small cell lung): 11.1 µM
TGI (A498 renal): 13.8 µM
TGI (HOP-62 NSCLC): 8.37 µM
TGI (SK-OV-3 ovarian): 29 µM
TGI (RPMI-8226 leukemia): 7.49 µM
TGI (HCT-15 colon): 14.4 µM
TGI (SN12C renal): 16.5 µM
TGI (SNB-78 CNS): 40.9 µM
TGI (OVCAR-5 ovarian): 19.7 µM
TGI (UACC-257 melanoma): 11 µM
TGI (IGROV1 ovarian): 39.3 µM
TGI (SR leukemia): 1670 nM
TGI (OVCAR-4 ovarian): 25.2 µM
TGI (LOX IMVI melanoma): 25.6 µM
TGI (TK-10 renal): 36 µM
TGI (SW-620 colon): 16.7 µM
TGI (UACC-62 melanoma): 8.41 µM
TGI (XF 498 CNS): 29.8 µM
TGI (HCC-2998 colon): 15.4 µM
TGI (SK-MEL-5 melanoma): 5.78 µM
TGI (OVCAR-3 ovarian): 27.7 µM
TGI (ACHN renal): 4.22 µM
TGI (HL-60(TB) leukemia): 6.79 µM
TGI (K-562 leukemia): 21.5 µM
TGI (KM20L2 colon): 25.7 µM
TGI (SF-539 CNS): 17.6 µM
TGI (DU-145 prostate): 6.9 µM
TGI (MCF7 breast): 3.56 µM
TGI (SNB-19 CNS): 30.3 µM
TGI (HOP-18 NSCLC): > 100 µM
TGI (UO-31 renal): 8.04 µM
TGI (MALME-3M melanoma): 15 µM
TGI (DLD-1 colon): 15 µM
TGI (T-47D breast): 7.44 µM
TGI (CAKI-1 renal): 12.5 µM
TGI (M19-MEL melanoma): 16.6 µM
TGI (EKVX NSCLC): 15.5 µM
TGI (786-0 renal): 18 µM
TGI (PC-3 prostate): 10.5 µM
TGI (SNB-75 CNS): 15.4 µM
TGI (HOP-92 NSCLC): 46.9 µM
TGI (CCRF-CEM leukemia): 5.32 µM
TGI (SF-295 CNS): 9.59 µM
TGI (DMS 114 small cell lung): 21.6 µM
